Each block holds one compound with its values, some of them ahead of it. Square brackets hold non-standard residues; d marks the D form. Peptide text beside a SMILES is read from it.
How the values were obtained:
[1] = target: Proteinase K (Parengyodontium album, UniProt P06873); test: in vitro; details: Proteinase K 5 μg/mL
Procedure: (§1) Degradation was monitored by HPLC. Solutions of individual coiled coils were prepared at 200 μM in 1× PBS and pH corrected to 7.40 ± 0.05 using 1–15 μL of 1 M NaOH. A stock solution of Proteinase K enzyme was prepared at 0.5 mg/mL. For each pair of peptides, 1.5 mL of each 200 μM solution was mixed, then 30 μL of 0.5 mg/mL Proteinase K was added to the 3 mL total mixed solution to obtain a final concentration of 5 μg/mL Proteinase K. Each degradation solution was stirred at 250 rpm for the duration of the experiment. For each time point, a 1 mL aliquot of degradation solution was added to an HPLC vial, a 100 μL injection was performed on HPLC, and the remaining 900 μL was returned to the bulk degradation solution. To normalize for slight shifts in elution time due to changing solvent or environmental conditions, a MATLAB script (included in SI) was used to align all K4^7 (for heptad degradation) or K3^11 (for hendecad degradation) peaks to the same elution time as the elution at t = 0 h.
(§2) Solutions of K4^7 and E4^7 (200 μM in 1× PBS at pH 7.4) were blended as homochiral (L-K4^7/L-E4^7) or heterochiral (D-K4^7/L-E4^7) mixtures. These blends were then incubated with 5 μg/mL Proteinase K, an enzyme known for its broad-spectrum activity and expected to cleave after the I, A, L, and E residues of these peptides.[40] Immediately after adding Proteinase K, as well as after 1, 3, 6, 12, and 24 h incubations, we used high performance liquid chromatography (HPLC) to monitor the degradation of the coiled coils.
(§3) We incubated solutions of homochiral (L-K3^11/L-E3^11) or heterochiral (D-K3^11/L-E3^11) hendecad coiled coils with 5 μg/mL Proteinase K as we did for the heptad coiled coils (200 μM each in 1× PBS at pH 7.4).

[2] = test system: Proteinase K; test: in vitro; details: isolated enzyme proteinase k
Procedure: as §1, §2, §3

[3] = cited from earlier work
Excerpt: For example, 1:1 heterochir ...

[4] = pH 7.4, percent intact by peak area (Normalized Area)

Chain of Proteinase K (Parengyodontium album, UniProt P06873) (P06873 106-384): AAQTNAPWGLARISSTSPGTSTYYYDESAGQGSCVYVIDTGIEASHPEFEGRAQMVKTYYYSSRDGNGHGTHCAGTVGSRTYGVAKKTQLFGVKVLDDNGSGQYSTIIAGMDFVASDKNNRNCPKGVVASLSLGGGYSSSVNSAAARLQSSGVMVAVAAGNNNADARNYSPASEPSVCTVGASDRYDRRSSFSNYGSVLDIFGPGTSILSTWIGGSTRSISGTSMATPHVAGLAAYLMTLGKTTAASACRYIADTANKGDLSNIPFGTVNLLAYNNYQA

Compound: CC[C@@H](C)[C@@H](NC(=O)[C@H](N)CCCCN)C(=O)N[C@H](C)C(=O)N[C@H](C)C(=O)N[C@H](CC(C)C)C(=O)N[C@H](CCCCN)C(=O)N[C@H](CCC(=O)O)C(=O)N[C@H](CCCCN)C(=O)N[C@@H](C(=O)N[C@H](C)C(=O)N[C@H](C)C(=O)N[C@H](CCCCN)C(=O)N[C@@H](C(=O)N[C@H](C)C(=O)N[C@H](C)C(=O)N[C@H](CC(C)C)C(=O)N[C@H](CCCCN)C(=O)N[C@H](CCC(=O)O)C(=O)N[C@H](CCCCN)C(=O)N[C@@H](C(=O)N[C@H](C)C(=O)N[C@H](C)C(=O)N[C@H](CCCCN)C(=O)N[C@@H](C(=O)N[C@H](C)C(=O)N[C@H](C)C(=O)N[C@H](CC(C)C)C(=O)N[C@H](CCCCN)C(=O)N[C@H](CCC(=O)O)C(=O)N[C@H](CCCCN)C(=O)N[C@@H](C(=O)N[C@H](C)C(=O)N[C@H](C)C(N)=O)[C@H](C)CC)[C@H](C)CC)[C@H](C)CC)[C@H](C)CC)[C@H](C)CC [D-K3^11] (H-[dK][dI][dA][dA][dL][dK][dE][dK][dI][dA][dA][dK][dI][dA][dA][dL][dK][dE][dK][dI][dA][dA][dK][dI][dA][dA][dL][dK][dE][dK][dI][dA][dA]-NH2)
- stability in the heterochiral complex (in words) ([1]; heterochiral blend D-K3^11:L-E3^11, 1× PBS pH 7.4, HPLC, 30 h incubation): remains largely stable

Compound: CC[C@@H](C)[C@@H](NC(=O)[C@H](N)CCCCN)C(=O)N[C@H](C)C(=O)N[C@H](C)C(=O)N[C@H](CC(C)C)C(=O)N[C@H](CCCCN)C(=O)N[C@H](CCC(=O)O)C(=O)N[C@H](CCCCN)C(=O)N[C@@H](C(=O)N[C@H](C)C(=O)N[C@H](C)C(=O)N[C@H](CC(C)C)C(=O)N[C@H](CCCCN)C(=O)N[C@H](CCC(=O)O)C(=O)N[C@H](CCCCN)C(=O)N[C@@H](C(=O)N[C@H](C)C(=O)N[C@H](C)C(=O)N[C@H](CC(C)C)C(=O)N[C@H](CCCCN)C(=O)N[C@H](CCC(=O)O)C(=O)N[C@H](CCCCN)C(=O)N[C@@H](C(=O)N[C@H](C)C(=O)N[C@H](C)C(=O)N[C@H](CC(C)C)C(=O)N[C@H](CCCCN)C(=O)N[C@H](CCC(=O)O)C(N)=O)[C@H](C)CC)[C@H](C)CC)[C@H](C)CC [D-K4^7] (H-[dK][dI][dA][dA][dL][dK][dE][dK][dI][dA][dA][dL][dK][dE][dK][dI][dA][dA][dL][dK][dE][dK][dI][dA][dA][dL][dK][dE]-NH2)
- degradation in the heterochiral blend (in words) ([1]; heterochiral blend D-K4^7:L-E4^7, 1× PBS pH 7.4, HPLC, up to 24 h): little to no degradation
- remaining at 1 h, 100 μM [2, 4]: 97%
- remaining at 3 h, 100 μM [2, 4]: 97%

- remaining at 3 h, 100 μM [2, 4]: 7%
- remaining at 6 h, 100 μM [2, 4]: 0%
- remaining at 12 h, 100 μM [2, 4]: 0%
- remaining at 168 h, 100 μM ([2]; pH 7.4, percent of the peptide remaining): 23%
Compound: CC[C@H](C)[C@H](NC(=O)[C@H](CCC(=O)O)NC(=O)[C@H](C)NC(=O)[C@H](C)NC(=O)[C@@H](NC(=O)[C@H](CCC(=O)O)NC(=O)[C@H](CCCCN)NC(=O)[C@H](CCC(=O)O)NC(=O)[C@H](CC(C)C)NC(=O)[C@H](C)NC(=O)[C@H](C)NC(=O)[C@@H](NC(=O)[C@H](CCC(=O)O)NC(=O)[C@H](C)NC(=O)[C@H](C)NC(=O)[C@@H](NC(=O)[C@H](CCC(=O)O)NC(=O)[C@H](CCCCN)NC(=O)[C@H](CCC(=O)O)NC(=O)[C@H](CC(C)C)NC(=O)[C@H](C)NC(=O)[C@H](C)NC(=O)[C@@H](NC(=O)[C@@H](N)CCC(=O)O)[C@@H](C)CC)[C@@H](C)CC)[C@@H](C)CC)[C@@H](C)CC)C(=O)N[C@@H](C)C(=O)N[C@@H](C)C(=O)N[C@@H](CC(C)C)C(=O)N[C@@H](CCC(=O)O)C(=O)N[C@@H](CCCCN)C(=O)N[C@@H](CCC(=O)O)C(=O)N[C@H](C(=O)N[C@@H](C)C(=O)N[C@@H](C)C(N)=O)[C@@H](C)CC [L-E3^11] (H-EIAALEKEIAAEIAALEKEIAAEIAALEKEIAA-NH2)

Compound: CC[C@H](C)[C@H](NC(=O)[C@H](CCC(=O)O)NC(=O)[C@H](CCCCN)NC(=O)[C@H](CCC(=O)O)NC(=O)[C@H](CC(C)C)NC(=O)[C@H](C)NC(=O)[C@H](C)NC(=O)[C@@H](NC(=O)[C@H](CCC(=O)O)NC(=O)[C@H](CCCCN)NC(=O)[C@H](CCC(=O)O)NC(=O)[C@H](CC(C)C)NC(=O)[C@H](C)NC(=O)[C@H](C)NC(=O)[C@@H](NC(=O)[C@H](CCC(=O)O)NC(=O)[C@H](CCCCN)NC(=O)[C@H](CCC(=O)O)NC(=O)[C@H](CC(C)C)NC(=O)[C@H](C)NC(=O)[C@H](C)NC(=O)[C@@H](NC(=O)[C@@H](N)CCC(=O)O)[C@@H](C)CC)[C@@H](C)CC)[C@@H](C)CC)C(=O)N[C@@H](C)C(=O)N[C@@H](C)C(=O)N[C@@H](CC(C)C)C(=O)N[C@@H](CCC(=O)O)C(=O)N[C@@H](CCCCN)C(N)=O [L-E4^7] (H-EIAALEKEIAALEKEIAALEKEIAALEK-NH2)
- time within which the intact peak disappears completely ([1]; heterochiral blend D-K4^7:L-E4^7, 1× PBS pH 7.4, HPLC peak at 6.9 min): ≤ 12 h
- remaining at 3 h, 100 μM ([2]; pH 7.4): 71%
- remaining at 6 h, 100 μM ([2]; pH 7.4): 12%
- remaining at 12 h, 100 μM ([2]; pH 7.4): 1%
- remaining at 24 h, 100 μM ([2]; pH 7.4): 0%

Compound: CC[C@H](C)[C@H](NC(=O)[C@H](CCCCN)NC(=O)[C@H](C)NC(=O)[C@H](C)NC(=O)[C@@H](NC(=O)[C@H](CCCCN)NC(=O)[C@H](CCC(=O)O)NC(=O)[C@H](CCCCN)NC(=O)[C@H](CC(C)C)NC(=O)[C@H](C)NC(=O)[C@H](C)NC(=O)[C@@H](NC(=O)[C@H](CCCCN)NC(=O)[C@H](C)NC(=O)[C@H](C)NC(=O)[C@@H](NC(=O)[C@H](CCCCN)NC(=O)[C@H](CCC(=O)O)NC(=O)[C@H](CCCCN)NC(=O)[C@H](CC(C)C)NC(=O)[C@H](C)NC(=O)[C@H](C)NC(=O)[C@@H](NC(=O)[C@@H](N)CCCCN)[C@@H](C)CC)[C@@H](C)CC)[C@@H](C)CC)[C@@H](C)CC)C(=O)N[C@@H](C)C(=O)N[C@@H](C)C(=O)N[C@@H](CC(C)C)C(=O)N[C@@H](CCCCN)C(=O)N[C@@H](CCC(=O)O)C(=O)N[C@@H](CCCCN)C(=O)N[C@H](C(=O)N[C@@H](C)C(=O)N[C@@H](C)C(N)=O)[C@@H](C)CC [L-K3^11] (H-KIAALKEKIAAKIAALKEKIAAKIAALKEKIAA-NH2)
- time to complete degradation ([1]; homochiral blend L-K3^11:L-E3^11, 1× PBS pH 7.4, HPLC): under 6 h
- remaining at 1 h, 100 μM ([2]; pH 7.4): 77%
- remaining at 3 h, 100 μM ([2]; pH 7.4): 11%
- remaining at 6 h, 100 μM ([2]; pH 7.4): 0%
- remaining at 12 h, 100 μM ([2]; pH 7.4): 0%
- remaining at 30 h, 100 μM ([2]; pH 7.4): 0%

- remaining at 3 h, 100 μM [2, 4]: 74%
- remaining at 24 h, 100 μM [2, 4]: 0%
Compound: CC[C@H](C)[C@H](NC(=O)[C@H](CCCCN)NC(=O)[C@H](CCC(=O)O)NC(=O)[C@H](CCCCN)NC(=O)[C@H](CC(C)C)NC(=O)[C@H](C)NC(=O)[C@H](C)NC(=O)[C@@H](NC(=O)[C@H](CCCCN)NC(=O)[C@H](CCC(=O)O)NC(=O)[C@H](CCCCN)NC(=O)[C@H](CC(C)C)NC(=O)[C@H](C)NC(=O)[C@H](C)NC(=O)[C@@H](NC(=O)[C@H](CCCCN)NC(=O)[C@H](CCC(=O)O)NC(=O)[C@H](CCCCN)NC(=O)[C@H](CC(C)C)NC(=O)[C@H](C)NC(=O)[C@H](C)NC(=O)[C@@H](NC(=O)[C@@H](N)CCCCN)[C@@H](C)CC)[C@@H](C)CC)[C@@H](C)CC)C(=O)N[C@@H](C)C(=O)N[C@@H](C)C(=O)N[C@@H](CC(C)C)C(=O)N[C@@H](CCCCN)C(=O)N[C@@H](CCC(=O)O)C(N)=O [L-K4^7] (H-KIAALKEKIAALKEKIAALKEKIAALKE-NH2)

Compound: (PPG)10
- solubility of heterochiral mixtures ([3]; heterochiral mixtures of triple helices): precipitate
- solubility of homochiral triple helices ([3]; homochiral triple helices): soluble
